Test results from patent publication US20260284208A1, “SYSTEM” (Oxford University Innovation Limited, priority 2023, published 2026).

System: library of 8,380 IKZF3 degrons (ZF-eGFP/mCherry reporter) in Jurkat cells
Test: Pooled library screen (FACS, NGS, limma voom LogFC of positive vs negative read counts)
Format: cell-based, human
Method in brief: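 Degron enrichment was scored by amplicon NGS of gDNA from GFP-low versus other mCherry+ cells, at >600× coverage across three independent transductions. Sorting followed 18 h exposure at 37 °C to thalidomide analog or DMSO, which set the gate; dead cells were excluded with DAPI. Single-copy integration used MOI <0.3.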

CC(C)(C)c1ccc2c(c1)C(=O)N(C1CCC(=O)NC1=O)C2=O (stereo not shown) [A63, 5-(tert-butyl)-2-(2,6-dioxopiperidin-3-yl)isoindoline-1,3-dione]
position of the WT sequence in the volcano plot of the library screen (WT ZF sequence): far away from the ‘hits’ region
A63_logFC (Estimated LogFC Coefficient, positive vs negative read counts) (mutant degron: Degron-ID 214, SEQ ID NO 1763, 46F_47A_49P_50Q_52G_53A_54R_55F_67L): 2.012
A63_logFC (Estimated LogFC Coefficient, positive vs negative read counts) (mutant degron: Degron-ID 1093, SEQ ID NO 1762, 46F 47F_49N_50I_52G_53A 54Q 55F 67L): 2.015
A63_logFC (Estimated LogFC Coefficient, positive vs negative read counts) (mutant degron: Degron-ID 1448, SEQ ID NO 1767, 46F_47H_49D_50I_52G_53A_54K_55F_67L): 2.005
A63_logFC (Estimated LogFC Coefficient, positive vs negative read counts) (mutant degron: Degron-ID 1792, SEQ ID NO 1752, 46F 47I 49E_50V_52G_53A 54P 55F 67L): 2.03
A63_logFC (Estimated LogFC Coefficient, positive vs negative read counts) (mutant degron: Degron-ID 2032, SEQ ID NO 1761, 46F_47K_49E_50V_52G_53A_54P 55F 67L): 2.016
A63_logFC (Estimated LogFC Coefficient, positive vs negative read counts) (mutant degron: Degron-ID 2220, SEQ ID NO 1759, 46F_47L_49E_50I_52G_53A_54A_55F_67L): 2.022
A63_logFC (Estimated LogFC Coefficient, positive vs negative read counts) (mutant degron: Degron-ID 2352, SEQ ID NO 1758, 46F_47L_49P_50I_52G_53A 54P 55F_67L): 2.022
A63_logFC (Estimated LogFC Coefficient, positive vs negative read counts) (mutant degron: Degron-ID 2873, SEQ ID NO 1765, 46F_47N_49P_50V_52G_53A_54Q_55F_67L): 2.01
A63_logFC (Estimated LogFC Coefficient, positive vs negative read counts) (mutant degron: Degron-ID 2874, SEQ ID NO 1756, 46F_47N_49P_50V_52G_53A_54R_55F_67L): 2.023
A63_logFC (Estimated LogFC Coefficient, positive vs negative read counts) (mutant degron: Degron-ID 3479, SEQ ID NO 1750, 46F_47S_49E_50V_52G_53A_54Y_55F_67L): 2.034
A63_logFC (Estimated LogFC Coefficient, positive vs negative read counts) (mutant degron: Degron-ID 3732, SEQ ID NO 1751, 46F 47T 49N 50I 52G 53A 54P 55F 67L): 2.034
A63_logFC (Estimated LogFC Coefficient, positive vs negative read counts) (mutant degron: Degron-ID 4130, SEQ ID NO 1769, 46F_47W_49D_50V_52G_53A_54M_55F_67L): 2.004
A63_logFC (Estimated LogFC Coefficient, positive vs negative read counts) (mutant degron: Degron-ID 4210, SEQ ID NO 1753, 46F_47W_49N_50I_52G_53A_54M_55F 67L): 2.029
A63_logFC (Estimated LogFC Coefficient, positive vs negative read counts) (mutant degron: Degron-ID 4213, SEQ ID NO 1757, 46F_47W_49N_50I_52G_53A_54Q_55F_67L): 2.023
A63_logFC (Estimated LogFC Coefficient, positive vs negative read counts) (mutant degron: Degron-ID 6432, SEQ ID NO 1764, 46F_47W_49P_50I_52G_53R_54P_55F_67L): 2.011
A63_logFC (Estimated LogFC Coefficient, positive vs negative read counts) (mutant degron: Degron-ID 6552, SEQ ID NO 1755, 46L 47F_49P_50I_52G_53F_54P 55C 67L): 2.023
A63_logFC (Estimated LogFC Coefficient, positive vs negative read counts) (mutant degron: Degron-ID 6583, SEQ ID NO 1754, 46L_47H_49P_50I_52G_53F_54E_55C_67L): 2.028
A63_logFC (Estimated LogFC Coefficient, positive vs negative read counts) (mutant degron: Degron-ID 7601, SEQ ID NO 1760, 46L_47A_49E_50I_52G_53F_54C_55C_67L): 2.006
A63_logFC (Estimated LogFC Coefficient, positive vs negative read counts) (mutant degron: Degron-ID 7628, SEQ ID NO 1770, 46L_47C_49E_50I_52G_53F_54K_55C_67L): 2.001
A63_logFC (Estimated LogFC Coefficient, positive vs negative read counts) (mutant degron: Degron-ID 7865, SEQ ID NO 1760, 46L 47R_49E_50I_52G_53F_54G_55C_67L): 2.019
A63_logFC (Estimated LogFC Coefficient, positive vs negative read counts) (mutant degron: Degron-ID 7971, SEQ ID NO 1768, 46L_47Y_49E_50I_52G_53F_54N_55C_67L): 2.005
